Assay results as given in US20110144001A1, “HIGHLY BRIDGED PEPTIDES FROM ACTINOMADURA NAMIBIENSIS” (SANOFI-AVENTIS, priority 2008, published 2011).

Legend:
[1] = tested on: Bacillus subtilis (ATCC 6633); assay: microbe, parasite or virus in culture; format: cell-based; settings: 37° C., 20 μl of 1 mg/ml test solution on 6 mm filter, 1 to 3 days
Experimental: (§1) The compounds were dissolved in water with 10% MeOH to a final concentration of 1 mg/ml. For the bioassay sterile Nunc plates with a size of 24×24 cm were used. For one plate 200 ml of agar were used. The agar was cooled after autoclaving to 55° C. and 2-4 ml of culture suspension of the test organism were added before plating. To each plate 64 filter plates with 6 mm in diameter were added. To each filter 20 μl of the test solution were added and incubated for 1 to 3 days at 28° C. or 37° C. The inhibition zone in mm was reported. For a detailed description of the methods, see Bauer et al., Amer. J. Clin. Pathol. 1966, 45, 493-496; Müller & Melchinger, Methoden in der Mikrobiologie, Franckhsche Verlagshandlung, Stuttgart (1964); Mueller & Hinton, Proc. Soc. Expt. Biol. Med. 1941, 48, 330-333.

[2] = tested on: Streptomyces murinus (DSM 40091); assay: microbe, parasite or virus in culture; format: cell-based; settings: 28° C., 20 μl of 1 mg/ml test solution on 6 mm filter, 1 to 3 days
Experimental: as §1

[3] = tested on: SNI mouse model of neuropathic pain; assay: Spared nerve injury (SNI) mouse model of neuropathic pain, tactile allodynia by automatic von Frey test; format: in vivo, C57B6 mice; settings: 3 mg/kg intravenous single application
Source text: Labyrinthopeptin A1 was studied in the spared nerve injury (SNI) mouse model of neuropathic pain in order to proof the activity on tactile allodynia. Under general anesthesia, the two major branches of the sciatic nerve in adult male C57B6 mice (weight: 22.8 g+/−0.35 SEM) have been ligated and transsected, with the sural nerve left intact. Tactile allodynia has been determined with the automatic von Frey test: using a dump needle stick, the plantar skin of hind paws was exposed to a pressure stimulus of increasing intensity up to 5 g. The force in grams at which the animal responded with hindpaw withdrawal was used as a read-out for tactile allodynia. The study was performed 7 days after nerve lesion over 6 hours with an additional measurement after 24 hours. Within two days after nerve transsection, tactile allodynia developed completely and remained stable over at least two weeks. The compound was administered intravenous as a single application (3 mg/kg). As a vehicle for the intravenous application was the 1:1:18 (ethanol:solutol: phosphate buffered saline) vehicle chosen.
The effect was gone 24 hours after application. […] The percent benefit of the treatment was evaluated using the |AUC1-6 hour| values of the ipsilateral vehicle group (0% benefit) and all |AUC1-6 hour| values of the contralateral sides of all three groups (100% benefit=maximal possible effect). […]

SMILES	zone of inhibition at 1000 µg/mL ([1]; Bacillus subtilis, ATCC6633) [mm]	zone of inhibition at 1000 µg/mL ([2]; Streptomyces murinus, DSM40091) [mm]	inhibition zone, Bacillus subtilis (ATCC 6633) [1] [mm]	inhibition zone, Streptomyces murinus (DSM 40091) [2] [mm]	percent benefit of the treatment from |AUC1-6 hour| of paw withdrawal threshold ([3]; 7 days after nerve lesion, 0% = ipsilateral vehicle, 100% = contralateral sides) [% benefit]	treatment effect on delta |AUC1-6 hour| of paw withdrawal threshold (1-way ANOVA, Dunnett analysis) ([3]; vs vehicle)
CN(C)[C@@H]1C(O)=C(C(N)=O)C(=O)[C@@]2(O)C(O)=C3C(=O)c4c(O)cccc4[C@@](C)(O)[C@H]3C[C@@H]12 [Tetracycline, reference compound]	32	24				
C/C=C1\NC(=O)[C@H](Cc2ccccc2)NC(=O)[C@@H]2CCCN2C(=O)[C@H](C(C)C)NC(=O)[C@H](Cc2c[nH]c3ccccc23)NC(=O)[C@]23CSC[C@H](NC1=O)C(=O)N[C@H](C(=O)O)CSSC[C@@H](NC(=O)[C@@H]1CSC[C@]4(C[C@H](NC(=O)OC(C)(C)C)C(=O)N[C@@H](CC(N)=O)C(=O)N[C@@H](C)C(=O)N4)C(=O)N[C@@H](C(C)C)C(=O)N[C@@H](Cc4c[nH]c5ccccc45)C(=O)N[C@@H](CCC(=O)O)C(=O)N1)C(=O)N[C@@H](C2)C(=O)N[C@@H]([C@@H](C)O)C(=O)NCC(=O)N3 [Labyrinthopeptin A1 derivative, Ex. 16]			9	0		
C/C=C1\NC(=O)[C@H](Cc2ccccc2)NC(=O)[C@@H]2CCCN2C(=O)[C@H](C(C)C)NC(=O)[C@H](Cc2c[nH]c3ccccc23)NC(=O)[C@]23CSC[C@H](NC1=O)C(=O)N[C@H](C(=O)O)CSSC[C@@H](NC(=O)[C@@H]1CSC[C@]4(C[C@H](N)C(=O)N[C@@H](CC(N)=O)C(=O)N[C@@H](C)C(=O)N4)C(=O)N[C@@H](C(C)C)C(=O)N[C@@H](Cc4c[nH]c5ccccc45)C(=O)N[C@@H](CCC(=O)O)C(=O)N1)C(=O)N[C@@H](C2)C(=O)N[C@@H]([C@@H](C)O)C(=O)NCC(=O)N3 [Labyrinthopeptin A1]			16.5	13	95	significant treatment effects
C/C=C1\NC(=O)[C@H](Cc2ccccc2)NC(=O)[C@@H]2CCCN2C(=O)[C@H](C(C)C)NC(=O)[C@H](Cc2c[nH]c3ccccc23)NC(=O)[C@]23CSC[C@H](NC1=O)C(=O)N[C@H](C(=O)O)CSSC[C@@H](NC(=O)[C@@H]1CSC[C@]4(C[C@H](NC(=O)OCCCCC)C(=O)N[C@@H](CC(N)=O)C(=O)N[C@@H](C)C(=O)N4)C(=O)N[C@@H](C(C)C)C(=O)N[C@@H](Cc4c[nH]c5ccccc45)C(=O)N[C@@H](CCC(=O)O)C(=O)N1)C(=O)N[C@@H](C2)C(=O)N[C@@H]([C@@H](C)O)C(=O)NCC(=O)N3 [Labyrinthopeptin A1 derivative, Ex. 18]			8	7		
C/C=C1\NC(=O)[C@H](Cc2ccccc2)NC(=O)[C@@H]2CCCN2C(=O)[C@H](C(C)C)NC(=O)[C@H](Cc2c[nH]c3ccccc23)NC(=O)[C@]23CSC[C@H](NC1=O)C(=O)N[C@H](C(=O)NCc1ccccc1)CSSC[C@@H](NC(=O)[C@@H]1CSC[C@]4(C[C@H](NC(=O)OC(C)(C)C)C(=O)N[C@@H](CC(N)=O)C(=O)N[C@@H](C)C(=O)N4)C(=O)N[C@@H](C(C)C)C(=O)N[C@@H](Cc4c[nH]c5ccccc45)C(=O)N[C@@H](CCC(=O)NCc4ccccc4)C(=O)N1)C(=O)N[C@@H](C2)C(=O)N[C@@H]([C@@H](C)O)C(=O)NCC(=O)N3			9	7		
